Results: publication PMC7356761 (Molecules, 2020)

Assays:
[1] = In vitro stability in PBS; type: physicochemical; conditions: 0.1 M PBS pH 7.4, 37 °C
Procedure: 3.7. In Vitro Stability Experiments
The in vitro stability of [^125I]10 was examined in phosphate buffered saline (PBS) and mouse plasma. Briefly, [^125I]10 solution (50 µL) in a sealed tube containing 0.1 M PBS pH 7.4 (450 µL) was incubated at 37 °C for 1 and 24 h. After incubation, the purities of radiotracers were analyzed by RP-HPLC with mobile phase system water (A) and methanol (B), B: 70–100%, 20 min using a Cosmosil® 5C18 MSII (4.6 ID × 150 mm) column, a flow rate 1 mL/min. The column temperature was kept at 40 °C.

[2] = system: H1975 cells (L858R/T790M active mutant EGFR); assay: Cellular uptake study, H1975; type: cell-based, human
Procedure: (§1) 3.8. Cellular Uptake Studies
(§2) Then, the cell culture was incubated in a serum-free medium containing [^125I]10 (3.7 kBq/well) for 4 h. The medium from each well was removed and the cells were washed with 1 mL of ice-cold PBS. Finally, all cell fractions were lysed twice with 0.5 mL of 1 M NaOH aqueous solution. The radioactivity of every fraction was determined by an auto well gamma counter. Total cell protein was determined using the Bicinchoninic Acid (BCA) Protein Assay Kit (Nacalai) protocol, which uses bovine serum albumin as a standard reference. […]. All data were expressed as percent dose per milligram of protein (% dose/mg protein) ± SD.

[3] = system: H441 cells (wild-type EGFR); assay: Cellular uptake study, H441; type: cell-based, human; conditions: H441, 4 h incubation
Procedure: as §1, §2

[4] = Biodistribution in tumor-bearing mice, normal tissues; type: in vivo, mouse
Procedure: Male ddY mice (27–30 g, 6 weeks old) and female BALB/c nu/nu mice (12–17 g, 4 weeks old) were purchased from Japan SLC Inc. (Hamamatsu, Japan). The mice were housed in a cage with free access to food and water maintained at a constant temperature (23–25 °C) with a 12 h light/dark cycle. […] The tumor reached palpable size 2- and 3-weeks post-inoculation. Animal experiments were conducted in accordance with laboratory guidelines for the care and use of animals of Kanazawa University. The animal handling protocol was approved by the Kanazawa University Animal Care Committee (approval number: AP-163766). 3.10. Biodistribution Studies Mice were injected intravenously via the lateral tail vein with a saline solution of [^125I]10 (25 kBq, 100 μL) containing 1% tween-80 and 10% ethanol. The ddY mice were sacrificed at 10 min, 1, 4 and 24 h; meanwhile, the tumor-bearing mice were sacrificed at 1 and 4 h post injection. The selected tissues and organs were collected and weighed and their radioactivity was measured using an auto well gamma counter. […] The mice were sacrificed 1 h after the administration of radiotracer. The biodistribution data are expressed as percent injected dose per gram of tissue (% ID/g) along with the SD.

[5] = Blocking (1 h), CO-1686 30 mg/kg i.p. 1 h prior

stability in PBS ([1]; 24 h incubation): purity decreased gradually
stability in PBS ([1]; until 1 h): slightly decomposed
Biodistribution, Blood [4, 5]: 1.79 (0.21) % ID/g tissue
Biodistribution, Bone [4, 5]: 1.07 (0.36) % ID/g tissue
Biodistribution, Brain [4, 5]: 0.10 (0.02) % ID/g tissue
Biodistribution, Heart [4, 5]: 1.53 (0.58) % ID/g tissue
Biodistribution, Kidney [4, 5]: 4.19 (1.28) % ID/g tissue
Biodistribution, Large intestine [4, 5]: 8.96 (7.48) % ID/g tissue
Biodistribution, Liver [4, 5]: 21.77 (2.83) % ID/g tissue
Biodistribution, Lung [4, 5]: 3.40 (0.93) % ID/g tissue
Biodistribution, Muscle [4, 5]: 1.09 (0.42) % ID/g tissue
Biodistribution, Pancreas [4, 5]: 3.87 (0.87) % ID/g tissue
Biodistribution, Small intestine [4, 5]: 60.68 (6.67) % ID/g tissue
Biodistribution, Spleen [4, 5]: 2.81 (0.77) % ID/g tissue
Biodistribution, Stomach [4, 5]: 1.44 (0.57) % ID/organ
Biodistribution, Blood ([4]; i.v., 1 h): 1.74 (0.18) % ID/g tissue
Biodistribution, Bone ([4]; i.v., 1 h): 0.50 (0.40) % ID/g tissue
Biodistribution, Brain ([4]; i.v., 1 h): 0.11 (0.08) % ID/g tissue
Biodistribution, Heart ([4]; i.v., 1 h): 1.46 (0.31) % ID/g tissue
Biodistribution, Kidney ([4]; i.v., 1 h): 5.26 (1.50) % ID/g tissue
Biodistribution, Large intestine ([4]; i.v., 1 h): 18.65 (19.88) % ID/g tissue
Biodistribution, Liver ([4]; i.v., 1 h): 28.12 (5.43) % ID/g tissue
Biodistribution, Lung ([4]; i.v., 1 h): 4.67 (0.85) % ID/g tissue
Biodistribution, Muscle ([4]; i.v., 1 h): 0.86 (0.21) % ID/g tissue
Biodistribution, Pancreas ([4]; i.v., 1 h): 1.99 (0.52) % ID/g tissue
Biodistribution, Small intestine ([4]; i.v., 1 h): 85.58 (7.68) % ID/g tissue
Biodistribution, Spleen ([4]; i.v., 1 h): 3.20 (0.62) % ID/g tissue
Biodistribution, Stomach ([4]; i.v., 1 h): 1.04 (0.36) % ID/organ
Biodistribution, Blood ([4]; i.v., 4 h): 0.77 (0.07) % ID/g tissue
Biodistribution, Bone ([4]; i.v., 4 h): 0.24 (0.20) % ID/g tissue
Biodistribution, Brain ([4]; i.v., 4 h): 0.04 (0.02) % ID/g tissue
Biodistribution, Heart ([4]; i.v., 4 h): 0.60 (0.67) % ID/g tissue
Biodistribution, Kidney ([4]; i.v., 4 h): 1.62 (0.26) % ID/g tissue
Biodistribution, Large intestine ([4]; i.v., 4 h): 144.21 (10.97) % ID/g tissue
Biodistribution, Liver ([4]; i.v., 4 h): 12.40 (1.06) % ID/g tissue
Biodistribution, Lung ([4]; i.v., 4 h): 1.02 (0.28) % ID/g tissue
Biodistribution, Muscle ([4]; i.v., 4 h): 0.27 (0.08) % ID/g tissue
Biodistribution, Pancreas ([4]; i.v., 4 h): 0.49 (0.12) % ID/g tissue
Biodistribution, Small intestine ([4]; i.v., 4 h): 9.82 (3.17) % ID/g tissue
Biodistribution, Spleen ([4]; i.v., 4 h): 0.71 (0.19) % ID/g tissue
Biodistribution, Stomach ([4]; i.v., 4 h): 0.48 (0.19) % ID/organ
Structure (SMILES): C=CC(=O)Nc1cc([125I])cc(Nc2nc(Nc3ccc(N4CCN(C(C)=O)CC4)cc3OC)ncc2C(F)(F)F)c1 [[^125I]10]
cell uptake ([2]; H1975, 4 h incubation): 101.52 % dose/mg protein
cell uptake with blocking ([2]; H1975, excess CO-1686 (100 µM)): 45.61 % dose/mg protein
effect of gefitinib blocking on accumulation ([2]; H1975, gefitinib 100 µM): did not reduce
cell uptake [3]: 8.95 % dose/mg protein
